Test results reported in ChEMBL document CHEMBL3763046 (Bioorg Med Chem, 2016).

How the values were obtained:
Mus musculus [1] = experiment: AUC (0 to infinity) in mouse at 20 mg/kg, iv or 35 mg/kg, po administered as single dose by LC/MS/MS analysis; format: ADME, organism-based; details: in vivo
[2] = Apparent volume of distribution during terminal phase in mouse at 35 mg/kg, po administered as single dose measured at 0.25 to 24 hrs by LC/MS/MS analysis; format: ADME, organism-based; details: in vivo, read-out: Vz/F
Mus musculus [3] = experiment: Half life in mouse at 20 mg/kg, iv or 35 mg/kg, po administered as single dose by LC/MS/MS analysis; format: ADME, organism-based; details: in vivo
Mus musculus [4] = experiment: Cmax in mouse at 35 mg/kg, po administered as single dose measured at 0.25 to 24 hrs by LC/MS/MS analysis; format: ADME, organism-based; set-up: dose 35 mg/kg, route oral; details: in vivo
Mus musculus [5] = experiment: Tmax in mouse at 35 mg/kg, po administered as single dose by LC/MS/MS analysis; format: ADME, organism-based; details: in vivo
A549 = experiment: Cytotoxicity against human A549 cells after 72 hrs by MTT assay; format: functional, cell-based; details: A549, 72 h
HT-29 [6] = experiment: Cytotoxicity against human HT-29 cells after 72 hrs by MTT assay; details: HT-29, 72 h
[7] = Cytotoxicity against human MKN45 cells after 72 hrs by MTT assay; details: MKN-45, 72 h
MDA-MB-231 = experiment: Cytotoxicity against human MDA-MB-231 cells after 72 hrs by MTT assay; format: functional, cell-based; details: MDA-MB-231, 72 h
PBL = experiment: Cytotoxicity against human PBL cells after 72 hrs by MTT assay; format: cell-based
[8] = Mean residence time (0 to infinity) in mouse at 20 mg/kg, iv or 35 mg/kg, po administered as single dose by LC/MS/MS analysis; format: ADME, organism-based; details: in vivo
[9] = Antitumor activity against human MKN45 cells xenografted in Balb/c mouse assessed as tumor growth inhibition at 50 mg/kg, po bid for 24 days relative to control; format: functional, MKN-45; set-up: scale not given: the % may be the effect or the level left
Mus musculus [10] = experiment: Toxicity in Balb/c mouse xenografted with human MKN45 cells assessed as change in body weight at 50 mg/kg, po bid for 24 days; format: organism-based, MKN-45; details: in vivo, 576 h
Mus musculus [11] = experiment: Toxicity in Balb/c mouse xenografted with human HT-29 cells assessed as change in body weight at 50 mg/kg, po bid for 27 days; format: organism-based; details: in vivo, 648 h
HT-29 [12] = experiment: Antitumor activity against human HT-29 cells xenografted in Balb/c mouse assessed as tumor growth inhibition at 50 mg/kg, po bid for 27 days relative to control; format: functional; set-up: scale not given: the % may be the effect or the level left

Structure (SMILES) | IC50 (A549) | IC50 (HT-29 [6]) | IC50 [7] | IC50 (MDA-MB-231) | IC50 (PBL) | further results
COc1cc2c(Oc3ccc(/C=N/NC(=O)Nc4ccc(F)cc4Br)cc3F)ccnc2cc1OCCCN1CCCCC1 | 98 nM | 110 nM | 140 nM | 1000 nM | 36400 nM | AUC (Mus musculus [1]): 1210 ng·h/mL; Vd/F [2]: 346 L/kg; t1/2 (Mus musculus [3]): 5.07 h; Cmax (Mus musculus [4]): 73 ng/mL; Tmax (Mus musculus [5]): 7.33 h; MRT inf [8]: 14.8 h
COc1cc2c(Oc3ccc(NC(=O)N/N=C/c4ccc(N(C)C)cc4)cc3F)ccnc2cc1OCCCN1CCCCC1 | – | 1000 nM | 870 nM | 1400 nM | – | –
COc1cc2c(Oc3ccc(/C=N/NC(=O)Nc4ccccc4)cc3F)ccnc2cc1OCCCN1CCCCC1 | 280 nM | 190 nM | 180 nM | 1200 nM | 25500 nM | –
COc1ccc(/C=N/NC(=O)Nc2ccc(Oc3ccnc4cc(OCCCN5CCC(C)CC5)c(OC)cc34)c(F)c2)cc1 | 430 nM | 610 nM | 470 nM | 1000 nM | 23000 nM | –
COc1ccc(/C=N/NC(=O)Nc2ccc(Oc3ccnc4cc(OCCCN5CCCCC5)c(OC)cc34)c(F)c2)c(OC)c1 | 1400 nM | 1600 nM | 1990 nM | – | – | –
COc1cc2c(Oc3ccc(NC(=O)N/N=C/c4ccncc4)cc3F)ccnc2cc1OCCCN1CCCCC1 | 840 nM | 940 nM | 980 nM | 1400 nM | – | –
C=CCc1cccc(/C=N/NC(=O)Nc2ccc(Oc3ccnc4cc(OCCCN5CCCCC5)c(OC)cc34)c(F)c2)c1OC | 250 nM | 460 nM | 670 nM | 790 nM | – | –
COc1cc2c(Oc3ccc(NC(=O)N/N=C/c4ccc(C(F)(F)F)cc4)cc3F)ccnc2cc1OCCCN1CCCC1 | 790 nM | 810 nM | 1300 nM | 1800 nM | – | –
COc1cc2c(Oc3ccc(/C=N/NC(=O)Nc4ccc(F)c(F)c4)cc3F)ccnc2cc1OCCCN1CCCCC1 | – | 490 nM | 320 nM | 960 nM | – | –
C=CCc1cccc(/C=N/NC(=O)CN2CCN(Cc3ccccc3)CC2)c1O [PAC-1] | – | – | 820 nM | – | 124000 nM | –
COc1ccc(/C=N/NC(=O)Nc2ccc(Oc3ccnc4cc(OCCCN5CCOCC5)c(OC)cc34)c(F)c2)cc1 | – | 900 nM | 770 nM | 1900 nM | 17200 nM | –
COc1cc2c(Oc3ccc(NC(=O)N/N=C/c4ccc([N+](=O)[O-])cc4)cc3F)ccnc2cc1OCCCN1CCC(C)CC1 | 380 nM | 230 nM | 420 nM | 870 nM | – | –
COc1cc2c(Oc3ccc(/C=N/NC(=O)Nc4ccc(Br)cc4)cc3F)ccnc2cc1OCCCN1CCCCC1 | – | 270 nM | 60 nM | 800 nM | – | –
COc1cc2c(Oc3ccc(NC(=O)N/N=C/c4ccc([N+](=O)[O-])cc4)cc3F)ccnc2cc1OCCCN1CCCC1 | 460 nM | 310 nM | 470 nM | 970 nM | – | –
COc1cc2c(Oc3ccc(NC(=S)N/N=C/c4ccccc4)cc3F)ccnc2cc1OCCCN1CCCCC1 | 330 nM | 210 nM | 710 nM | 1200 nM | 78400 nM | AUC (Mus musculus [1]): 7340 ng·h/mL; Vd/F [2]: 107 L/kg; t1/2 (Mus musculus [3]): 13.48 h; Cmax (Mus musculus [4]): 87 ng/mL; Tmax (Mus musculus [5]): 12 h; MRT inf [8]: 24.3 h
COc1cc2c(Oc3ccc(NC(=O)N/N=C/c4ccc(Cl)cc4Cl)cc3F)ccnc2cc1OCCCN1CCC(C)CC1 | – | 470 nM | 350 nM | 910 nM | – | –

Structure (SMILES) | IC50 (A549) | IC50 (HT-29 [6]) | IC50 [7] | IC50 (MDA-MB-231) | IC50 (PBL) | further results
COc1cc2c(Oc3ccc(NC(=O)N/N=C/c4cccs4)cc3F)ccnc2cc1OCCCN1CCCCC1 | 790 nM | 770 nM | 740 nM | 1260 nM | 68700 nM | –
COc1ccc(/C=N/NC(=O)Nc2ccc(Oc3ccnc4cc(OCCCN5CCCCC5)c(OC)cc34)c(F)c2)cc1 | 540 nM | 590 nM | 660 nM | 840 nM | 126000 nM | –
COc1cc2c(Oc3ccc(NC(=O)N/N=C/c4cc5ccccc5[nH]4)cc3F)ccnc2cc1OCCCN1CCCCC1 | 780 nM | 820 nM | 830 nM | 980 nM | – | –
COc1cc2c(Oc3ccc(NC(=S)N/N=C/c4ccc(F)cc4Cl)cc3F)ccnc2cc1OCCCN1CCCCC1 | 230 nM | 420 nM | 820 nM | 1400 nM | 34100 nM | –
COc1cc2c(Oc3ccc(NC(=O)C4(C(=O)Nc5ccc(F)cc5)CC4)cc3F)ccnc2cc1OCCCN1CCOCC1 [FORETINIB] | – | – | – | – | – | Activity [9]: 78.23%; Activity (Mus musculus [10]): Non-toxic; Activity (Mus musculus [11]): Non-toxic; Activity (HT-29 [12]): 73.68%
COc1cc2c(Oc3ccc(NC(=S)N/N=C/c4ccc(F)c(F)c4)cc3F)ccnc2cc1OCCCN1CCCCC1 | – | 610 nM | 740 nM | 1400 nM | – | –
COc1cc2c(Oc3ccc(NC(=O)N/N=C/c4ccc(C(F)(F)F)cc4)cc3F)ccnc2cc1OCCCN1CCC(C)CC1 | 650 nM | 740 nM | 1000 nM | 1300 nM | – | –
COc1ccc(/C=N/NC(=O)Nc2ccc(Oc3ccnc4cc(OCCCN5CCCC5)c(OC)cc34)c(F)c2)cc1 | 680 nM | 690 nM | 750 nM | 1300 nM | 26500 nM | –
COc1cc2c(Oc3ccc(NC(=O)N/N=C/c4ccc(OC(F)(F)F)cc4)cc3F)ccnc2cc1OCCCN1CCCCC1 | 590 nM | 510 nM | 630 nM | 820 nM | – | –
COc1cc2c(Oc3ccc(NC(=O)N/N=C/c4ccc([N+](=O)[O-])cc4)cc3F)ccnc2cc1OCCCN1CCOCC1 | – | 710 nM | 750 nM | 1700 nM | – | –
COc1cc2c(Oc3ccc(NC(=O)N/N=C/c4ccc(Cl)cc4Cl)cc3F)ccnc2cc1OCCCN1CCCCC1 | – | 370 nM | 460 nM | 750 nM | – | –
COc1cc2c(Oc3ccc(NC(=S)N/N=C/c4ccc(Cl)cc4)cc3F)ccnc2cc1OCCCN1CCCCC1 | – | 190 nM | 500 nM | 1300 nM | – | –
COc1cc2c(Oc3ccc(NC(=O)N/N=C/c4ccc(O)cc4)cc3F)ccnc2cc1OCCCN1CCCCC1 | 780 nM | 470 nM | 850 nM | 790 nM | – | –
COc1cc2c(Oc3ccc(NC(=O)N/N=C/c4ccc(F)cc4Cl)cc3F)ccnc2cc1OCCCN1CCC(C)CC1 | 190 nM | 440 nM | 530 nM | 1500 nM | 79500 nM | –
COc1cc2c(Oc3ccc(NC(=O)N/N=C/c4ccc(C(F)(F)F)cc4)cc3F)ccnc2cc1OCCCN1CCCCC1 | 660 nM | 660 nM | 630 nM | 1100 nM | – | –
